Consider 2 compounds from patent US8791155B2, “Chroman derivatives” (Edison Pharmaceuticals, Inc., priority 2003, dated 2014).

Structures are written as SMILES. pEC50: −log10 of the molar value.

The test system of this assay is IL-1β release from a mouse microglial cell line. The assay can be described thus: Interleukin-1β microglial cell assay (LPS / IFN gamma). The class given is cell-based. Particulars: LPS (10 μg/ml) and IFN gamma (10 ng/ml), 24 hours, read-out: EC50, inhibition of IL-1 beta induction. The procedure:
This assay measures the release of IL-1β from a mouse microglial cell line following an inflammatory challenge with LPS and interferon-gamma. The ability of test articles to inhibit microglial cell activation and IL-1β release is determined by co-incubation of the test article with the inflammatory challenge.
Mouse microglial cells were seeded in poly-D-lysine coated 96-well plates at a density of 10,000 cells/well and allowed to attach for 24 hours. Cells were stimulated by addition of LPS (10 μg/ml) and IFN gamma (10 ng/ml) in the presence or absence of test article. The cells were then incubated for 24 hours at 37° C., after which time the media was removed and used for cytokine determination as described below.
Viability of mouse microglial cells after exposure to the test article was determined using a fluorescent viability dye, Cell Tracker Green. Cell Tracker Green was used at a working concentration of 5 μM in 1×HBSS. Cells were washed once with HBSS (200 μl/well) and 100 μl Cell Tracker Green was added to each well. Cells were then incubated at 37° C. for 30 minutes, after which time the Cell Tracker was removed and the cells were washed once with HBSS (200 μl/well). 100 pl fresh HBSS was added to each well and the plate was read on a Fluoroskan plate reader using an excitation wavelength of 485 nm and an emission wavelength of 538 nm.
1. […]
• The Costar EIA Hi-binding plate was coated with capture antibody at 4 μg/ml. […] Each well was filled to the top, dispensed, and any remaining buffer was removed by inverting the plate and gently blotting against clean paper towels. • Non-specific binding sites were blocked by adding 300 μl of Blocking Buffer to each well, and after sealing incubating for at least 1 hour at room temperature. • After washing the plate was now ready for the samples. […] 100 μl of this Substrate Solution mixture was added to each well and the plate was incubated in the dark for 20 minutes at room temperature. • 50 μl of Stop Solution was added to each well, mixing was ensured by gently tapping. • Each plate was read with the Spectramax once at 450 nm. […]

Broadly, the pEC50 is the negative decadic logarithm of the EC50, by convention in mol/L. With `Cc1c(O)cc2c(c1C)OC(C)(CC/C=C1\SC(=O)NC1=O)CC2` (centres unmarked) [5-[3-(6-Hydroxy-2,7,8-trimethyl-chroman-2-yl)-propylidene]-thiazolidine-2,4-dione], the pEC50 is not below 4.70.
With `CC1=NN(c2ccccc2)C(=O)C1C(CCC1(C)CCc2cc(O)c(C)c(C)c2O1)C1C(=O)N(c2ccccc2)N=C1C` (centres unmarked) [1-(6-Hydroxy-2,7,8-trimethyl-chroman-2-yl)-3-bis-(5-methyl-2-phenyl-2,4-dihydro-pyrazol-3-one-4-yl)-propane], the pEC50 was not below 4.70.
